# Test results from patent US20150191445A1, “ACYL-HYDRAZONE AND OXADIAZOLE COMPOUNDS, PHARMACEUTICAL COMPOSITIONS CONTAINING THE SAME AND USES THEREOF” (Universidade Federal de Santa Catarina, priority 2011, published 2015).
# Experiments:
# Type in all cases: cell-based, human
# Jurkat cells [1] = assay: Quantification of apoptosis with Annexin V/PI labeling; details: 125 nM, 18 h
# Experimental: The cells were incubated for 12 hours in fresh medium before experiments. Two million cells from the Jurkat line were incubated for 12 h, 18 h, 24 h and 30 h in RPMI-640 medium supplemented with 10% Fetal Bovine Serum (FCS) and 0.2% Penicillin/Streptomycin (PS) with a concentration of 125 nM of compound 07 or DMSO (vehicle).
# The cells treated or not with compound 07 were rinsed in PBS and labeled with Annexin V Apoptosis Assay kit (Invitrogen). Briefly, cells were resuspended in appropriate buffer containing calcium and incubated for 15 min with Annexin V-FITC and propidium iodide 5 μg/mL. 10,000 events were collected on FACSCalibur flow cytometer, excluding any debris by forward vs standard, side scatter, with quantification of green and red fluorescence.
# Jurkat cells [2] = assay: MTT cytotoxicity assay, Jurkat cell line; details: 48 h of treatment, read-out: IC50 T (Jurkat)
# Experimental: All compounds were resuspended in DMSO at stock concentration of 20 mM and stored at −20° C. For cytotoxicity testing, the dilutions from the stock solutions were made in culture medium (RPMI-1640 plus 10% of fetal bovine serum, 100 IU/ml penicillin and 100 µg/mL Streptomycin), immediately before being discharged to the cells.
# The REH and Jurkat cell lines were maintained in
# RPMI-1640 medium with 10% FBS (fetal bovine serum), 100 IU/mL penicillin, 100 µg/mL streptomycin and incubated at 37° C. and 5% CO2. Cytotoxicity assays were performed according to the method described in the literature (Pieters, R.; et al. In vitro drug sensitivity of cells from children with leukemia using the MTT assay with improved culture conditions. Blood, 1990, 76, 2327-2336; Pieters, R.; et al. Relation of cellular drug resistance to long-term clinical outcome in childhood acute lymphoblastic leukaemia. Lancet, 1991, 338, 399-403 e Kaspers, G. J.; et al. In vitro cellular drug resistance and prognosis in newly diagnosed childhood acute lymphoblastic leukemia. Blood, 1997, 90, 2723). Cells were resuspended at a concentration of 3.75 10^5 cells/mL in culture medium as described. Eighty microliters of this suspension were seeded into plates with 96 round-bottom wells, containing 20 microliters of different concentrations of compound or vehicle alone. Each treatment was done in triplicate. After 48 hours of incubation at 37° C. and 5% CO2, 20 μL of MTT solution was added (5 mg/mL of 1x PBS), followed by further incubation for 4 hours and 30 minutes at 37° C. and 5% CO2. During these 4 hours and 30 minutes, MTT (yellowish) is metabolized to formazan salt (bluish in color) by living cells. After this, 100 μL sodium dodecyl sulphate (SDS) 10%+0.1M of HCl were added to dissolve the formazan crystals. After incubating overnight, absorbance reading at 570 nm was carried out. The percentage of cells surviving the treatment were calculated relative to the number of surviving cells in the medium without addition of the compounds in question (“negative control”).
# c) Determination of IC: IC50 is defined as the concentration of a compound at which 50% of maximal inhibition is obtained. After reading the absorbance, survival curves were constructed and the values of IC50 were obtained with the GraphPad Prism software.
# HL-60 cells = assay: DNA microarray gene expression and GSEA analysis; details: 125 nM, 6 h
# Experimental: The cells were incubated for 12 hours in fresh medium before the experiments. Two million cells from the leukemic cell line HL60, in triplicate, were treated with a 125 nM dose of compound 07 or with dimethylsulfoxide (DMSO) vehicle for 6 h, in DMEM supplemented with 10% fetal bovine serum. At the end of this period, the cells were recovered by brief centrifugation and lysed in a solution of guanidine of the RNAspin Mini RNA Isolation kit (GE).
# Total RNA was extracted from cells using the RNAspin Mini RNA Isolation kit (GE) following the manufacturer's instructions. A total of 100 ng of RNA was used to prepare biotinylated complementary RNA probes (Bio-cRNA), by cDNA synthesis followed by amplification by in vitro transcription, using the GeneChip WT cDNA Synthesis and Amplification kit (Affymetrix) according to the recommendations of the manufacturer. […]
# the results of the microarray hybridization were read in the Affymetrix Gene Chip Scanner 3000-7G. Data were analyzed in the Bioconductor platform. […] The list of differentially expressed genes were analyzed using the CMap (http://www.broad.mit.edu/cmap/) for identification of possible action mechanisms related to the action of known compounds (Lamb, J., Crawford E. D. The Connectivity Map: Using Gene-Expression Signatures to Connect Small Molecules, Genes and Disease Science 2006, 313, 1929-1935). […]
structure (smiles),measurement,setting,value
COc1cc(C(=O)NN=Cc2cccc3ccccc23)cc(OC)c1OC [Compound 07],induction of apoptosis,Jurkat cells [1],strong inducer of apoptosis
same,IC50,Jurkat cells [2],15.7 nM
same,expression of tubulin and tubulin-specific chaperone gene set (GSEA),HL-60 cells,drastic reduction of the expression of a set of genes of tubulin and tubulin-specific chaperones
